“And” between values parts separate entries of the source, which are not always exact repeats. Identical values can stand only once. Like-named read-outs stand apart in the source and are kept apart here.
Key:
glioma lines = conditions: in vitro; cited from earlier work
[1] = in vivo; cited from earlier work
9L [2] = assay: Intracranial local drug delivery by polymer implant in rat glioma model, median survival (Table 1 summary); conditions: in vivo
[3] = cited from earlier work
[4] = Intracranial local drug delivery by polymer implant in rat glioma model, P98 cells injected (Table 1 summary); format: in vivo; conditions: p(FAD:SA) 5% load
From the text: Table 1 is a summary of studies on intracranial local drug delivery in rat glioma models, as described in the following examples.

9L [5] = assay: Clonogenic assay, camptothecin; format: cell-based; conditions: Rattus norvegicus
Procedure: (§1) Tumor cell lines. […] The F98 glioma cells were provided by Dr. Joseph Goodman, Department of Neurosurgery, Ohio State University, Columbus, Ohio. The human glioma cell lines U87 and U373 were provided by Dr. O. Michael Colvin, Johns Hopkins University School of Medicine, Baltimore, Md. JH1 is a cell line established from a biopsy specimen from a patient with a pathologically confirmed glioblastoma multiform.
(§2) Clonogenic assay. The sensitivity of each glioma cell line was tested in a clonogenic assay. At confluence, the cells were trypsinized and plated at 400 cells per 60 mm well. After 24 hours, fresh medium containing camptothecin at various concentrations was added. For brief exposure experiments, the camptothecin was removed and replaced with fresh medium after 1 hour; for continuous exposure, medium was left in place for 7 days. At 7 days, all plates were fixed and stained with coomassie brilliant blue (Bio Rad, Richmond, Calif.). Colonies containing more than 50 cells were identified and counted. Treatments were performed in triplicate. Survival was calculated as the number of colonies formed by the treated cells relative to the number of colonies formed by the untreated cells.

F98 = assay: Clonogenic assay, camptothecin; format: cell-based; conditions: Rattus norvegicus
Procedure: as §1, §2

U373 = assay: Clonogenic assay, camptothecin; format: cell-based; conditions: Homo sapiens, U373 MG
Procedure: as §1, §2

U87 = assay: Clonogenic assay, camptothecin; format: cell-based, human
Procedure: as §1, §2

JH1 = assay: Clonogenic assay, camptothecin; format: cell-based; conditions: Homo sapiens; for IC100: read-out: concentration for total cell kill
From the text: as §1
Cell culture of freshly biopsied gliomas. Biopsy samples were obtained from the operating room and transported in sterile specimen containers. Specimens were filtered through a 230 μm mesh collector screen (Bellco Glass, Inc., Vineland, N.J.) with use of a glass pestle. The specimen was then centrifuged at 1000 rpm for 10 minutes. The supernatant fraction was discarded and the cell pellet was resuspended in a 1 ml of minimum essential medium (Gibco BRL, Grand Island, N.Y.) with 10% fetal bovine serum, 0.5% L-glutamine, penicillin (base; 80.5 units/ml), and streptomycin (80.5 μg/ml). The suspension was passed through a 25 gauge needle, after which it was recentrifuged at 1000 rpm for 5 minutes. The supernatant fraction was discarded and the pellet was resuspended in 5 ml of medium. This suspension was plated onto T75 culture flasks at various dilutions and incubated at 37° C. The medium was changed approximately every 3 days. When the initial culture reached confluence, the cells were trypsinized and passaged. Sensitivity was assessed by the clonogenic assay below, beginning with the second passage.
as §2

[6] = tested on: F98, 9L, U87, U373, JH1 cell lines; assay: In vitro efficacy of camptothecin on several cell lines (clonogenic assay); format: cell-based; conditions: 168 h; rat and established human cell lines, continuous exposure; read-out: LD90 after continuous exposure
From the text: as §1
Cell culture of freshly biopsied gliomas. Biopsy samples were obtained from the operating room and transported in sterile specimen containers. Specimens were filtered through a 230 μm mesh collector screen (Bellco Glass, Inc., Vineland, N.J.) with use of a glass pestle. The specimen was then centrifuged at 1000 rpm for 10 minutes. The supernatant fraction was discarded and the cell pellet was resuspended in a 1 ml of minimum essential medium (Gibco BRL, Grand Island, N.Y.) with 10% fetal bovine serum, 0.5% L-glutamine, penicillin (base; 80.5 units/ml), and streptomycin (80.5 μg/ml). […] Sensitivity was assessed by the clonogenic assay below, beginning with the second passage.
Clonogenic assay. […] Colonies containing more than 50 cells were identified and counted. […] Survival was calculated as the number of colonies formed by the treated cells relative to the number of colonies formed by the untreated cells.

topoisomerase I = conditions: cited from earlier work
[7] = tested on: melanoma and advanced gastrointestinal carcinoma; conditions: human, in vivo; cited from earlier work
L1210 = conditions: in vitro; cited from earlier work
[8] = tested on: rat Walker 256 carcinosarcoma; conditions: in vitro; cited from earlier work
[9] = sodium salt formulation; cited from earlier work
[10] = 1 h, read-out: LD90 1 Hour Exposure
[11] = 168 h, continuous exposure, 7 days, read-out: LD90 Continuous Exposure

## COc1cccc2c1C(=O)c1c(O)c3c(c(O)c1C2=O)C[C@@](O)(C(=O)CO)C[C@@H]3O[C@H]1C[C@H](N)[C@H](O)[C@H](C)O1 [Adriamycin]
Glioma lines
  sensitivity of gliomas: highly sensitive
[1]
  cardiac toxicity: significant dose related cardiac toxicity

## O=NN(CCCl)C(=O)NCCCl [BCNU, 1,3-bis(2-chloroethyl)-1-nitrosourea]
9L [2]
  % increase survival: 634% and 437%
  Median survival in days, Rx group: 80 and 62.3
[3]; 21 days after implantation
  radius from implant within which BCNU is detectable: ≤ 3 mm
[3]; Day 7
  radius from implant within which BCNU is detectable: ≤ 40 mm
[3]; PCPP-SA (20:80), initially, read-out: average concentration in brain
  concentration: 8000 µM
[3]; over time
  amount of brain exposed to BCNU: decrease after three days

## N.N.O=C([O-])C1(C(=O)[O-])CCC1.[Pt+2] [Carboplatin]
[4]; Rx day 5
  % increase survival: 225%
[4]; Rx day 5, 1 × 10^5 cells injected, controls 16, n = 18
  Median survival in days, Rx group: 52 days

## CC[C@@]1(O)C(=O)OCc2c1cc1n(c2=O)Cc2cc3ccccc3nc2-1 [camptothecin, 4-ethyl-4-hydroxy-1H-pyrano[3',4':6,7]indolizino[1,2-b] quinoline-3,14(4H,12H)-dione]
9L [5]; [10]
  IC90: 1400 nM
9L [5]; [11]
  IC90: 100 nM
F98; F98, 1 h, read-out: LD90 1 Hour Exposure
  IC90: 1400 nM
F98; F98, 168 h, continuous exposure, 7 days, read-out: LD90 Continuous Exposure
  IC90: 100 nM
U373; [10]
  IC90: 300 nM
U373; [11]
  IC90: 26 nM
U87; 1 hour exposure, 60 min, read-out: LD90 1 Hour Exposure
  IC90: 1400 nM
U87; Homo sapiens, U-87 MG, 1 h, 1 hour exposure, read-out: LD90 1 Hour Exposure
  IC90: 1200 nM
U87; Homo sapiens, U-87 MG, 168 h, continuous exposure, 7 days, read-out: LD90 Continuous Exposure
  IC90: 100 nM
JH1; [10]
  IC90: 100 nM
JH1; [11]
  IC90: 26 nM
JH1; 1-hour exposure
  IC100: 0.14 µM
JH1; continuous exposure
  IC100: 0.03 µM
[6]
  IC90: ≤ 100 nM
Topoisomerase I
  inhibition of topoisomerase I: irreversibly inhibiting
[7]
  systemic toxicity: unexpectedly severe systemic toxicity
  tumoral responses: poor tumoral responses
L1210
  cytotoxic anti-tumor activity: strong cytotoxic anti-tumor activity
[8]
  cytotoxic anti-tumor activity: strong cytotoxic anti-tumor activity
[9]
  protein binding: strongly protein-bound

## CN(C)c1ccc(O)c2c1C[C@H]1C[C@H]3[C@H](N(C)C)C(O)=C(C(N)=O)C(=O)[C@@]3(O)C(O)=C1C2=O [minocycline]
9L [2]
  % increase survival > no Rx: 330%
9L [2]; ip
  % increase survival > ip BCNU: 93%

Source: patent publication USRE37410E, “Controlled local delivery of chemotherapeutic agents for treating solid tumors” (priority 1999, dated 2001)
